Patent publication US9828360B2 (Array BioPharma Inc., priority 2012, dated 2017)

Tests used:
[1] = molecular target: T1, AKT3 (Homo sapiens, UniProt Q9Y243); experiment: KinaseProfiler off-target kinase profiling; assay type: biochemical; conditions: 10 μM, ATP near Km
T1 construct: purchased Millipore, Inc. (KinaseProfiler service)
Protocol: (§1) A representative compound of the invention (Example 48) was tested for off-target kinase activity at a concentration of 10 μM by Millipore, Inc. in their KinaseProfiler™ service against all the kinases available in their full kinase panel. The compound was run in duplicate at a concentration of ATP near the Km for each individual kinase according to Millipore's specifications. The results are shown in Table B. Data are reported as percent of control (POC) and are the average of the two replicates.

[2] = molecular target: T2, AMPK (A1/B1/G1) (Homo sapiens, UniProt Q13131); experiment: KinaseProfiler off-target kinase profiling; assay type: biochemical; conditions: 10 μM, ATP near Km
T2 construct: purchased Millipore, Inc. (KinaseProfiler service)
Protocol: as §1

[3] = molecular target: T3, BrSK2 (Homo sapiens, UniProt Q8IWQ3); experiment: KinaseProfiler off-target kinase profiling; assay type: biochemical; conditions: 10 μM, ATP near Km
T3 construct: purchased Millipore, Inc. (KinaseProfiler service)
Protocol: as §1

[4] = molecular target: T4, CDK2/cyclinE (Homo sapiens, UniProt P24941); experiment: KinaseProfiler off-target kinase profiling; assay type: biochemical; conditions: 10 μM, ATP near Km
T4 construct: purchased Millipore, Inc. (KinaseProfiler service)
Protocol: as §1

[5] = tested on: CK1_y; experiment: KinaseProfiler off-target kinase profiling; assay type: biochemical; conditions: 10 μM, ATP near Km
Protocol: as §1

[6] = molecular target: T5, CK1gamma1 (Homo sapiens, UniProt Q9HCP0); experiment: KinaseProfiler off-target kinase profiling; assay type: biochemical; conditions: 10 μM, ATP near Km
T5 construct: purchased Millipore, Inc. (KinaseProfiler service)
Protocol: as §1

[7] = molecular target: T6, CLK2 (Homo sapiens, UniProt P49760); experiment: KinaseProfiler off-target kinase profiling; assay type: biochemical; conditions: 10 μM, ATP near Km
T6 construct: purchased Millipore, Inc. (KinaseProfiler service)
Protocol: as §1

[8] = molecular target: T7, EphA7 (Homo sapiens, UniProt Q15375); experiment: KinaseProfiler off-target kinase profiling; assay type: biochemical; conditions: 10 μM, ATP near Km
T7 construct: purchased Millipore, Inc. (KinaseProfiler service)
Protocol: as §1

[9] = molecular target: T8, EphB4 (Homo sapiens, UniProt P54760); experiment: KinaseProfiler off-target kinase profiling; assay type: biochemical; conditions: 10 μM, ATP near Km
T8 construct: purchased Millipore, Inc. (KinaseProfiler service)
Protocol: as §1

[10] = molecular target: T9, FGFR2 (Homo sapiens, UniProt P21802); experiment: KinaseProfiler off-target kinase profiling; assay type: biochemical; conditions: 10 μM, ATP near Km
T9 construct: purchased Millipore, Inc. (KinaseProfiler service)
Protocol: as §1

[11] = molecular target: T10, Fes (Homo sapiens, UniProt P07332); experiment: KinaseProfiler off-target kinase profiling; assay type: biochemical; conditions: 10 μM, ATP near Km
T10 construct: purchased Millipore, Inc. (KinaseProfiler service)
Protocol: as §1

[12] = molecular target: T11, Flt3 (Homo sapiens, UniProt P36888); experiment: KinaseProfiler off-target kinase profiling; assay type: biochemical; conditions: 10 μM, ATP near Km
T11 construct: purchased Millipore, Inc. (KinaseProfiler service)
Protocol: as §1

[13] = molecular target: T12, IGF-1R Activated (Homo sapiens, UniProt P08069); experiment: KinaseProfiler off-target kinase profiling; assay type: biochemical; conditions: 10 μM, ATP near Km
T12 construct: purchased Millipore, Inc. (KinaseProfiler service)
Protocol: as §1

[14] = molecular target: T13, JNK3 (Homo sapiens, UniProt P53779); experiment: KinaseProfiler off-target kinase profiling; assay type: biochemical; conditions: 10 μM, ATP near Km
T13 construct: purchased Millipore, Inc. (KinaseProfiler service)
Protocol: as §1

[15] = molecular target: T14, MARK1 (Homo sapiens, UniProt Q9P0L2); experiment: KinaseProfiler off-target kinase profiling; assay type: biochemical; conditions: 10 μM, ATP near Km
T14 construct: purchased Millipore, Inc. (KinaseProfiler service)
Protocol: as §1

[16] = molecular target: T15, MLK1 (Homo sapiens, UniProt P80192); experiment: KinaseProfiler off-target kinase profiling; assay type: biochemical; conditions: 10 μM, ATP near Km
T15 construct: purchased Millipore, Inc. (KinaseProfiler service)
Protocol: as §1

[17] = molecular target: T16, MRCKalpha (Homo sapiens, UniProt Q5VT25); experiment: KinaseProfiler off-target kinase profiling; assay type: biochemical; conditions: 10 μM, ATP near Km
T16 construct: purchased Millipore, Inc. (KinaseProfiler service)
Protocol: as §1

[18] = molecular target: T17, MSK2 (Homo sapiens, UniProt O75676); experiment: KinaseProfiler off-target kinase profiling; assay type: biochemical; conditions: 10 μM, ATP near Km
T17 construct: purchased Millipore, Inc. (KinaseProfiler service)
Protocol: as §1

[19] = molecular target: T18, Met (Homo sapiens, UniProt P08581); experiment: KinaseProfiler off-target kinase profiling; assay type: biochemical; conditions: 10 μM, ATP near Km
T18 construct: purchased Millipore, Inc. (KinaseProfiler service)
Protocol: as §1

[20] = molecular target: T19, NLK (Homo sapiens, UniProt Q9UBE8); experiment: KinaseProfiler off-target kinase profiling; assay type: biochemical; conditions: 10 μM, ATP near Km
T19 construct: purchased Millipore, Inc. (KinaseProfiler service)
Protocol: as §1

[21] = molecular target: T20, PAK4 (Homo sapiens, UniProt O96013); experiment: KinaseProfiler off-target kinase profiling; assay type: biochemical; conditions: 10 μM, ATP near Km
T20 construct: purchased Millipore, Inc. (KinaseProfiler service)
Protocol: as §1

[22] = molecular target: T21, PAK5 (Homo sapiens, UniProt Q9P286); experiment: KinaseProfiler off-target kinase profiling; assay type: biochemical; conditions: 10 μM, ATP near Km
T21 construct: purchased Millipore, Inc. (KinaseProfiler service)
Protocol: as §1

[23] = molecular target: T22, PKCeta (Homo sapiens, UniProt P24723); experiment: KinaseProfiler off-target kinase profiling; assay type: biochemical; conditions: 10 μM, ATP near Km
T22 construct: purchased Millipore, Inc. (KinaseProfiler service)
Protocol: as §1

[24] = molecular target: T23, RIPK2 (Homo sapiens, UniProt O43353); experiment: KinaseProfiler off-target kinase profiling; assay type: biochemical; conditions: 10 μM, ATP near Km
T23 construct: purchased Millipore, Inc. (KinaseProfiler service)
Protocol: as §1

[25] = molecular target: T24, Ron (Homo sapiens, UniProt Q04912); experiment: KinaseProfiler off-target kinase profiling; assay type: biochemical; conditions: 10 μM, ATP near Km
T24 construct: purchased Millipore, Inc. (KinaseProfiler service)
Protocol: as §1

[26] = molecular target: T25, SGK1 (Homo sapiens, UniProt O00141, S422D); experiment: KinaseProfiler off-target kinase profiling; assay type: biochemical; conditions: 10 μM, ATP near Km
T25 construct: purchased Millipore, Inc. (KinaseProfiler service)
Protocol: as §1

[27] = molecular target: T26, SGK3 (Homo sapiens, UniProt Q96BR1); experiment: KinaseProfiler off-target kinase profiling; assay type: biochemical; conditions: 10 μM, ATP near Km
T26 construct: purchased Millipore, Inc. (KinaseProfiler service)
Protocol: as §1

[28] = molecular target: T27, TrkB (Homo sapiens, UniProt Q16620); experiment: KinaseProfiler off-target kinase profiling; assay type: biochemical; conditions: 10 μM, ATP near Km
T27 construct: purchased Millipore, Inc. (KinaseProfiler service)
Protocol: as §1

[29] = molecular target: T28, Txk (Homo sapiens, UniProt P42681); experiment: KinaseProfiler off-target kinase profiling; assay type: biochemical; conditions: 10 μM, ATP near Km
T28 construct: purchased Millipore, Inc. (KinaseProfiler service)
Protocol: as §1

[30] = molecular target: T29, WNK2 (Homo sapiens, UniProt Q9Y3S1); experiment: KinaseProfiler off-target kinase profiling; assay type: biochemical; conditions: 10 μM, ATP near Km
T29 construct: purchased Millipore, Inc. (KinaseProfiler service)
Protocol: as §1

[31] = molecular target: T30, TrkA (Homo sapiens, UniProt P04629); experiment: KinaseProfiler off-target kinase profiling; assay type: biochemical; parameters: purchased Millipore, Inc. (KinaseProfiler service); conditions: 10 μM, ATP near Km
Protocol: as §1

[32] = molecular target: T30, TrkA; experiment: TrkA LanthaScreen Eu Kinase Binding Assay; parameters: 6HIS tagged cytoplasmic domain from Invitrogen, Cat. No. PV3144; purchased Invitrogen PV3144; conditions: averaged IC50 values, read-out: TrkA Enzyme IC50
Protocol: TrkA binding activity was determined in a TrkA LanthaScreen™ Eu Kinase Binding Assay. 5 nM His-tagged recombinant human TrkA (6HIS tagged cytoplasmic domain from Invitrogen, Cat. No. PV3144) was incubated with 4 nM Alexa-Fluor® Tracer 236 (Invitrogen Cat. No. PV5592), 2 nM biotinylated anti-His (Invitrogen Cat. No. PV6090), and 2 nM europium-labeled Streptavidin (Invitrogen Cat. No. PV5899), in buffer (25 mM MOPS, pH 7.5, 5 mM MgCl2, 0.005% Triton X-100). Three fold serial dilutions of compounds of the invention in DMSO were added to a final percentage of 2% DMSO. After 60-minute incubation at 22° C., the reaction was measured using the EnVision mutlimode plate reader (PerkinElmer) via TR-FRET dual wavelength detection at […]. The percent of control was calculated using a ratiometric emission factor. The IC50 values were determined by fitting a four parameter model to the percent of control data.
Table A provides averaged IC50 values for compounds of the invention when tested in the assay of Example A, where A represents an averaged IC50 value <100 nM; and B represents an averaged IC50 value from 100 to 1,000 nM.
Target sequence in this assay (P04629 440-796 limits assumed): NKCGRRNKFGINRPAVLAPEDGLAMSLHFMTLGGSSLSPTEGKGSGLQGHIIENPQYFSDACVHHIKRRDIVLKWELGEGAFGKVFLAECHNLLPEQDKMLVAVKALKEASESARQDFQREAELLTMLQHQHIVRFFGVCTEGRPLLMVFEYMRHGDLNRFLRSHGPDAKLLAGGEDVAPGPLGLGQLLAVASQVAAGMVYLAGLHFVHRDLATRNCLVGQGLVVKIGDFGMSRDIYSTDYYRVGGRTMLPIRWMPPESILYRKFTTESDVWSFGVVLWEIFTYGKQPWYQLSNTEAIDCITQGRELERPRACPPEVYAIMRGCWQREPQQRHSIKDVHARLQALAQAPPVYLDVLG

T28 sequence (P42681 whole entry): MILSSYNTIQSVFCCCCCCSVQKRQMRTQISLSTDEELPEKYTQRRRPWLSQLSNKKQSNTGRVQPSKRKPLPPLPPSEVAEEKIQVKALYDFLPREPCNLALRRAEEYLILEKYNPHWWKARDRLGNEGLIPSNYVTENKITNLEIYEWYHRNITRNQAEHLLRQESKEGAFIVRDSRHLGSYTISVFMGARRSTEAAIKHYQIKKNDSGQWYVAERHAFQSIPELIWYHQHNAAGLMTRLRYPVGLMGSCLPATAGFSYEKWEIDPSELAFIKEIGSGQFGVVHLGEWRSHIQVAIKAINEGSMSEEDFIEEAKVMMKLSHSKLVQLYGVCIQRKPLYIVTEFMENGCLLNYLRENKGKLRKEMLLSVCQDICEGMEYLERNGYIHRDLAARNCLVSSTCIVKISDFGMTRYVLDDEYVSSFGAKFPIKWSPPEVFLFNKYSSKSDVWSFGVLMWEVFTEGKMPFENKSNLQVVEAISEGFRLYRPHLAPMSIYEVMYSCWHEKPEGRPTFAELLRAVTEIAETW
T19 sequence (Q9UBE8 whole entry): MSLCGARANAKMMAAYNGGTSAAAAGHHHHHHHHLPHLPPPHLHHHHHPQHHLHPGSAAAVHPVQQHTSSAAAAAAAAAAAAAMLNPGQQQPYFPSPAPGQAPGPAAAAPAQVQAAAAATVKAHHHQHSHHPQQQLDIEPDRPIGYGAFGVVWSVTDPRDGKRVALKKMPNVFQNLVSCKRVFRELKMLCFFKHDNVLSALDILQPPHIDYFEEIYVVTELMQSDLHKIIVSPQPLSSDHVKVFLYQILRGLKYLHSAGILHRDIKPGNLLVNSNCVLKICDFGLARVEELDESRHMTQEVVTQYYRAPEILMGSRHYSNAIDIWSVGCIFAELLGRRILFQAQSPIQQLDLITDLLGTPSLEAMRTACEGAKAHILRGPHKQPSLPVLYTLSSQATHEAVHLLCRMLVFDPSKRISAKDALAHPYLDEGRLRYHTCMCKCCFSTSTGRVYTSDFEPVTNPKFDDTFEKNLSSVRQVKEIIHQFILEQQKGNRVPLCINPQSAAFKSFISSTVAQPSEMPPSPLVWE
T26 sequence (Q96BR1 whole entry): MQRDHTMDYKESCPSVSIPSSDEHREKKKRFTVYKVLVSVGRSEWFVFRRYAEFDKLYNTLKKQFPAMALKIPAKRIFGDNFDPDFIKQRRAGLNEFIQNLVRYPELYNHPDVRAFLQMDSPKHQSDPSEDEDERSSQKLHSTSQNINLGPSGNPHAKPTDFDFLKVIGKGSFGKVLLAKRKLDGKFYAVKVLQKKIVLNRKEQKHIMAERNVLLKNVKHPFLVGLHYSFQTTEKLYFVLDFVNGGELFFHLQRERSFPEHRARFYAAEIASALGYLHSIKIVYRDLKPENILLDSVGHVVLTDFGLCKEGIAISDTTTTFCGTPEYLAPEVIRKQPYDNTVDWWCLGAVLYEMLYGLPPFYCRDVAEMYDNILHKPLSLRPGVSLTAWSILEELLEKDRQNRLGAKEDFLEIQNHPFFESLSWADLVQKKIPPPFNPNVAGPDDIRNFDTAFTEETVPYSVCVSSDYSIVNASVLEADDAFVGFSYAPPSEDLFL
T6 sequence (P49760 whole entry): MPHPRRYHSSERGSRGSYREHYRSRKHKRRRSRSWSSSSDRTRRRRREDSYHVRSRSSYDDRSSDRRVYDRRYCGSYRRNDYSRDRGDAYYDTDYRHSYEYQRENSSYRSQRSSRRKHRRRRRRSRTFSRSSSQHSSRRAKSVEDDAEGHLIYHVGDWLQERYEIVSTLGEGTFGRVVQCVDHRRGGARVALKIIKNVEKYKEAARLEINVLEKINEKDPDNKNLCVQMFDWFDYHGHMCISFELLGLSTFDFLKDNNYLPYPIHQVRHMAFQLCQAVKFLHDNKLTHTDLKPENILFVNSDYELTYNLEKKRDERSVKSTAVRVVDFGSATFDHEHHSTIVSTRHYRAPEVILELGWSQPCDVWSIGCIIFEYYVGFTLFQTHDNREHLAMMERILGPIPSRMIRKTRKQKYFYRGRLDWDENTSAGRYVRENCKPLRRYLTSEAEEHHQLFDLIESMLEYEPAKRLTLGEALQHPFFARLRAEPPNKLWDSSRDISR
T17 sequence (O75676 whole entry): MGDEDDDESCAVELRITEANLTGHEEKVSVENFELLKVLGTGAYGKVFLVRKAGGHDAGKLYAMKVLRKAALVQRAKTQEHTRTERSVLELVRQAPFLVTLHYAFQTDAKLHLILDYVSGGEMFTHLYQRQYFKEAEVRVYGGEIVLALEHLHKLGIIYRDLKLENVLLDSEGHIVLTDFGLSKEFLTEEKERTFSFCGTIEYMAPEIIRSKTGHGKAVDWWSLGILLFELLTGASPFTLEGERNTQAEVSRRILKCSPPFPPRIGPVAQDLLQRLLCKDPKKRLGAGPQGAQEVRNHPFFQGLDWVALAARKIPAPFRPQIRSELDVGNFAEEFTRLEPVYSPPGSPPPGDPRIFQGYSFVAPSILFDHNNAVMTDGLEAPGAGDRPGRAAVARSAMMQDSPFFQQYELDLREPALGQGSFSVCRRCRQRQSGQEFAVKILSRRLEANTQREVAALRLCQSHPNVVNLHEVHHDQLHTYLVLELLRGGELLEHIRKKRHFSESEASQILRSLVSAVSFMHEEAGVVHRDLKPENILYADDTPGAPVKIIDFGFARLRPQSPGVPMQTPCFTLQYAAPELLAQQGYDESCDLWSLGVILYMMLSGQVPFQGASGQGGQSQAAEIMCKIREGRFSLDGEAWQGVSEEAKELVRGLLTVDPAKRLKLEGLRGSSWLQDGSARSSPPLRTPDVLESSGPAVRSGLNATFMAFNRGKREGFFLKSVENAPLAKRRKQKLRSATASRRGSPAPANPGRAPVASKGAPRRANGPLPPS
T10 sequence (P07332 whole entry): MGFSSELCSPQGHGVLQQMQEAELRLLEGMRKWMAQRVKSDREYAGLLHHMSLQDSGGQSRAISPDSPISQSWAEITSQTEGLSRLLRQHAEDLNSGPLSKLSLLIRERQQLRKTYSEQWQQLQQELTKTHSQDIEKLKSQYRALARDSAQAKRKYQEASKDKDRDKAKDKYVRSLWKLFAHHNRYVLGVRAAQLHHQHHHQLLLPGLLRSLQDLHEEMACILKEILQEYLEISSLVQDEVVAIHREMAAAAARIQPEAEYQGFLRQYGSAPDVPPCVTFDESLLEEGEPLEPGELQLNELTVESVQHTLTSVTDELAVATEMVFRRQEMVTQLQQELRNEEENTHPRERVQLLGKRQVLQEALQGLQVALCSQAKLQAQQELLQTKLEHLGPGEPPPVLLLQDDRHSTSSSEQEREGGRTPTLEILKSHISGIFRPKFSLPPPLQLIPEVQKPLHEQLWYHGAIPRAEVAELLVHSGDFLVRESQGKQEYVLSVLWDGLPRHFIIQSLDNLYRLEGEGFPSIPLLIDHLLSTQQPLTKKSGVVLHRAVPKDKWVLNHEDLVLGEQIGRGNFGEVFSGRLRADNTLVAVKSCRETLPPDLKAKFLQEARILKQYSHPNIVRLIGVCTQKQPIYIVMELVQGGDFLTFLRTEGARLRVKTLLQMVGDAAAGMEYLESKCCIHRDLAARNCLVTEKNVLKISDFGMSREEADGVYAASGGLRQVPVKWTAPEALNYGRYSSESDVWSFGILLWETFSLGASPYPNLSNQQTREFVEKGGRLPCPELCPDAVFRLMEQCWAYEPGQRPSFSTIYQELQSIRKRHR
T13 sequence (P53779 whole entry): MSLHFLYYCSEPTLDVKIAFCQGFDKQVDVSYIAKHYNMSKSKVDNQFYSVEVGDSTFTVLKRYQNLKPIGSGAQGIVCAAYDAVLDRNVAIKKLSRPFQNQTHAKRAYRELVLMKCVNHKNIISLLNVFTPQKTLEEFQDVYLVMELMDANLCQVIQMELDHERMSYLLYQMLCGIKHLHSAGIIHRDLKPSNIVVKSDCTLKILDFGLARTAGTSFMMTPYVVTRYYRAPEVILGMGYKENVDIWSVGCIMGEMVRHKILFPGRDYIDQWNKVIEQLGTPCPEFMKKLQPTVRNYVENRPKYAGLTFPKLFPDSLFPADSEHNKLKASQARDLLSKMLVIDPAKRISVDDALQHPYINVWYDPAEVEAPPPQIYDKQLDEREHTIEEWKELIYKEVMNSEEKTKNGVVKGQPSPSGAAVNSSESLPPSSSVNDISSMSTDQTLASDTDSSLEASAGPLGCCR
T23 sequence (O43353 whole entry): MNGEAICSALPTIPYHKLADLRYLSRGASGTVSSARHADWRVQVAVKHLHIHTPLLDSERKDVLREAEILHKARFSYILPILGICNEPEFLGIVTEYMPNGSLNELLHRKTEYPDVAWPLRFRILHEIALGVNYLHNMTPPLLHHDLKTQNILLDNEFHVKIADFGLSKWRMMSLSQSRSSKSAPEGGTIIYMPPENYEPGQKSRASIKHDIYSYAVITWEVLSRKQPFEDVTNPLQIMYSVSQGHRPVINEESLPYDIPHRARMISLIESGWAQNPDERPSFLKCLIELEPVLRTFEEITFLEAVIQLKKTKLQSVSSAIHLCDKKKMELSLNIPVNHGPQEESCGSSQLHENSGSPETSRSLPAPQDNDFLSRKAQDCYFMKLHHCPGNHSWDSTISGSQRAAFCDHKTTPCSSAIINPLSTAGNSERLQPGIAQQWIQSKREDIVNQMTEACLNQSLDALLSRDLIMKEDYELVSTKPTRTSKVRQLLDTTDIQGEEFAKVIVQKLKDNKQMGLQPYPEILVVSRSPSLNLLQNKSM

## COCCN1C[C@@H](NC(=O)Nc2sc(C(C)C)nc2-c2ccccc2)[C@H](c2ccccc2)C1 [Example 48, 1-(2-isopropyl-4-phenylthiazol-5-yl)-3-((3S,4R)-1-(2-methoxyethyl)-4-phenylpyrrolidin-3-yl)urea]
[1]
  Avg POC: 106.5% of control
[2]
  Avg POC: 114.5% of control
[3]
  Avg POC: 119.5% of control
[4]
  Avg POC: 113% of control
[5]
  Avg POC: 106% of control
[6]
  Avg POC: 116% of control
[7]
  Avg POC: 116% of control
[8]
  Avg POC: 101% of control
[9]
  Avg POC: 99% of control
[10]
  Avg POC: 106.5% of control
[11]
  Avg POC: 86.5% of control
[12]
  Avg POC: 99% of control
[13]
  Avg POC: 102% of control
[14]
  Avg POC: 106% of control
[15]
  Avg POC: 113% of control
[16]
  Avg POC: 115% of control
[17]
  Avg POC: 113.5% of control
[18]
  Avg POC: 103.5% of control
[19]
  Avg POC: 109% of control
[20]
  Avg POC: 108.5% of control
[21]
  Avg POC: 134.5% of control
[22]
  Avg POC: 113% of control
[23]
  Avg POC: 93% of control
[24]
  Avg POC: 108% of control
[25]
  Avg POC: 105.5% of control
[26]
  Avg POC: 125% of control
[27]
  Avg POC: 82% of control
[28]
  Avg POC: 9% of control
[29]
  Avg POC: 85.5% of control
[30]
  Avg POC: 92.5% of control
[31]
  Avg POC: 2.5% of control
[32]
  IC50: < 100 nM
